Laboratory results: US20250020651A1, “PERSONALIZED MODULATION THERAPY FOR CANCER” (Faeth Therapeutics, Inc., priority 2021, published 2025)

Key:
[1] = tested on: Pancreatic cancer cells such as BxPC3, CFPAC1, PANC1, DANG, and PATU8902; experiment: Crystal Violet cell growth with chemotherapy drugs in complete or P/S/G free media; assay type: cell-based, Human; settings: P/S/G free media vs complete media, +10% dialyzed FBS, 3 days, Crystal Violet staining
Procedure: A study was performed to evaluate the efficacy of a disclosed composition in the treatment of cancer when combined with a chemotherapy drug. Pancreatic cancer cells such as BxPC3, CFPAC1, PANC1, DANG, and PATU8902 were treated with either Gemcitabine (GEM), Paclitaxel (PAC), GEM+PAC, and FOLFIRINOX (which is a combination of 5FU, Oxaliplatin, Folinic acid, and Irinotecan), in combination with complete media, or with media free of the amino acids […]), as indicated in FIG. 4 rows A-D. Cells were seeded in 96-well plates and in complete media+10% FBS. 24 hours later, cells were washed with PBS followed by addition of the indicated drugs with either complete or P/S/G free media+10% dialyzed FBS. Cells were grown for 3 more days, and cell growth was measured using Crystal Violet staining. […] Error bars denote the standard deviation.

[2] = tested on: Pancreatic cancer cell lines such as BxPC3, CFPAC1, PANC1, DANG and PATU8902; experiment: Crystal Violet cell growth with serabelisib in complete or P/S/G free media; assay type: cell-based, Human; settings: P/S/G free media vs complete media, 3 days, Crystal Violet staining
Procedure: A study was performed to evaluate the efficacy of disclosed compositions in the treatment of cancer when combined with a targeted anti-cancer therapy. Pancreatic cancer cell lines such as BxPC3, CFPAC1, PANC1, DANG and PATU8902 were treated with an alpha specific PI3K inhibitor, serabelisib. Cells were seeded in 96-well plates and in complete media+10% FBS. 24 hours later, cells were washed with PBS followed by addition of serabelisib with either complete or P/S/G free media+10% dialysed FBS (FIG. 6A-6F). Cells were grown for 3 more days and cell growth was measured using Crystal Violet staining. Error bars denote standard deviation. […] P/S/G starvation pushes the response curve down and to the left meaning lower concentrations of drug achieve the same cell kill.

CC(=O)O[C@H]1C(=O)[C@@]2(C)[C@H]([C@H](OC(=O)c3ccccc3)[C@]3(O)C[C@H](OC(=O)[C@H](O)[C@@H](NC(=O)c4ccccc4)c4ccccc4)C(C)=C1C3(C)C)[C@]1(OC(C)=O)CO[C@@H]1C[C@@H]2O [paclitaxel, Paclitaxel]
effect of restriction of proline, serine, and glycine on cell growth response to the drug [1]: sensitized cancer cells

Nc1nc2cc(-c3ccc4ncc(C(=O)N5CCOCC5)n4c3)ccc2o1 [serabelisib]
cell kill by serabelisib under P/S/G starvation [2]: improved cell kill at lower drug concentrations

Nc1ccn([C@@H]2O[C@H](CO)[C@@H](O)C2(F)F)c(=O)n1 [gemcitabine, Gemcitabine]
effect of restriction of proline, serine, and glycine on cell growth response to the drug [1]: sensitized cancer cells
